Results as given in PubChem BioAssay (NCI).
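Where inhibition never reached the appropriate level, the endpoint shown equals the highest concentration tested. Otherwise, values were interpolated linearly from a five-concentration, 48-hour dose response in 96-well plates. At the GI50, growth is halved. TGI denotes the concentration required for complete inhibition of growth.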

Experiments:
Test in all cases: NCI tumour cell line growth inhibition, 48 h
786-0 renal = tested on: 786-0 renal
K-562 leukemia = tested on: K-562 leukemia
UO-31 renal = tested on: UO-31 renal
SK-OV-3 ovarian = tested on: SK-OV-3 ovarian
HCT-15 colon = tested on: HCT-15 colon
MCF7 breast = tested on: MCF7 breast
NCI-H226 lung = tested on: NCI-H226 lung
SNB-19 CNS = tested on: SNB-19 CNS
OVCAR-8 ovarian = tested on: OVCAR-8 ovarian
KM12 colon = tested on: KM12 colon
SNB-75 CNS = tested on: SNB-75 CNS
RPMI-8226 leukemia = tested on: RPMI-8226 leukemia
HOP-92 NSCLC = tested on: HOP-92 NSCLC
MDA-MB-231 breast = tested on: MDA-MB-231 breast
NCI/ADR-RES ovarian = tested on: NCI/ADR-RES ovarian
HT29 colon = tested on: HT29 colon
HCT-116 colon = tested on: HCT-116 colon
SF-268 CNS = tested on: SF-268 CNS
MALME-3M melanoma = tested on: MALME-3M melanoma
UACC-62 melanoma = tested on: UACC-62 melanoma
SK-MEL-28 melanoma = tested on: SK-MEL-28 melanoma
OVCAR-3 ovarian = tested on: OVCAR-3 ovarian
SR leukemia = tested on: SR leukemia
SF-295 CNS = tested on: SF-295 CNS
SN12C renal = tested on: SN12C renal
A498 renal = tested on: A498 renal
EKVX NSCLC = tested on: EKVX NSCLC
CAKI-1 renal = tested on: CAKI-1 renal
PC-3 prostate = tested on: PC-3 prostate
TK-10 renal = tested on: TK-10 renal
BT-549 breast = tested on: BT-549 breast
SW-620 colon = tested on: SW-620 colon
T-47D breast = tested on: T-47D breast
U251 CNS = tested on: U251 CNS
LOX IMVI melanoma = tested on: LOX IMVI melanoma
ACHN renal = tested on: ACHN renal
COLO 205 colon = tested on: COLO 205 colon
M14 melanoma = tested on: M14 melanoma
CCRF-CEM leukemia = tested on: CCRF-CEM leukemia
HL-60(TB) leukemia = tested on: HL-60(TB) leukemia
MDA-MB-435 = tested on: MDA-MB-435
IGROV1 ovarian = tested on: IGROV1 ovarian
A549 NSCLC = tested on: A549 NSCLC
SK-MEL-2 melanoma = tested on: SK-MEL-2 melanoma
UACC-257 melanoma = tested on: UACC-257 melanoma
HS 578T breast = tested on: HS 578T breast
OVCAR-4 ovarian = tested on: OVCAR-4 ovarian
NCI-H23 lung = tested on: NCI-H23 lung
HOP-62 NSCLC = tested on: HOP-62 NSCLC
DU-145 prostate = tested on: DU-145 prostate
MOLT-4 leukemia = tested on: MOLT-4 leukemia
RXF 393 renal = tested on: RXF 393 renal
NCI-H460 lung = tested on: NCI-H460 lung
SF-539 CNS = tested on: SF-539 CNS
SK-MEL-5 melanoma = tested on: SK-MEL-5 melanoma
OVCAR-5 ovarian = tested on: OVCAR-5 ovarian
NCI-H522 lung = tested on: NCI-H522 lung

O=C1c2ccccc2-c2ccccc2C1(Cl)Cl
GI50 (786-0 renal): 2110 nM | TGI (786-0 renal): 4.16 µM | GI50 (K-562 leukemia): 430 nM | TGI (K-562 leukemia): 5.46 µM | GI50 (UO-31 renal): 1120 nM | TGI (UO-31 renal): 2410 nM | GI50 (SK-OV-3 ovarian): 1700 nM | TGI (SK-OV-3 ovarian): 3.08 µM | GI50 (HCT-15 colon): 1810 nM | TGI (HCT-15 colon): 4250 nM | GI50 (MCF7 breast): 1860 nM | TGI (MCF7 breast): 4.19 µM | GI50 (NCI-H226 lung): 1790 nM | TGI (NCI-H226 lung): 3490 nM | GI50 (SNB-19 CNS): 1840 nM | TGI (SNB-19 CNS): 4.66 µM | GI50 (OVCAR-8 ovarian): 334 nM | TGI (OVCAR-8 ovarian): 1260 nM | GI50 (KM12 colon): 1730 nM | TGI (KM12 colon): 3170 nM | GI50 (SNB-75 CNS): 1620 nM | TGI (SNB-75 CNS): 3000 nM | GI50 (RPMI-8226 leukemia): 527 nM | TGI (RPMI-8226 leukemia): 2630 nM | GI50 (HOP-92 NSCLC): 1760 nM | TGI (HOP-92 NSCLC): 4070 nM | GI50 (MDA-MB-231 breast): 1360 nM | TGI (MDA-MB-231 breast): 3.63 µM | GI50 (NCI/ADR-RES ovarian): 398 nM | TGI (NCI/ADR-RES ovarian): 1850 nM | GI50 (HT29 colon): 2520 nM | TGI (HT29 colon): 7.57 µM | GI50 (HCT-116 colon): 300 nM | TGI (HCT-116 colon): 1090 nM | GI50 (SF-268 CNS): 1280 nM | TGI (SF-268 CNS): 2590 nM | GI50 (MALME-3M melanoma): 980 nM | TGI (MALME-3M melanoma): 2300 nM | GI50 (UACC-62 melanoma): 1660 nM | TGI (UACC-62 melanoma): 3.34 µM | GI50 (SK-MEL-28 melanoma): 1800 nM | TGI (SK-MEL-28 melanoma): 3.24 µM | GI50 (OVCAR-3 ovarian): 1410 nM | TGI (OVCAR-3 ovarian): 2710 nM | GI50 (SR leukemia): 2710 nM | TGI (SR leukemia): 8.71 µM | GI50 (SF-295 CNS): 1270 nM | TGI (SF-295 CNS): 3000 nM | GI50 (SN12C renal): 1450 nM | TGI (SN12C renal): 2980 nM | GI50 (A498 renal): 1090 nM | TGI (A498 renal): 2770 nM | GI50 (EKVX NSCLC): 1460 nM | TGI (EKVX NSCLC): 2880 nM | GI50 (CAKI-1 renal): 1170 nM | TGI (CAKI-1 renal): 2630 nM | GI50 (PC-3 prostate): 1080 nM | TGI (PC-3 prostate): 3.31 µM | GI50 (TK-10 renal): 1250 nM | TGI (TK-10 renal): 2680 nM | GI50 (BT-549 breast): 1720 nM | TGI (BT-549 breast): 3.14 µM | GI50 (SW-620 colon): 1840 nM | TGI (SW-620 colon): 3820 nM | GI50 (T-47D breast): 1600 nM | TGI (T-47D breast): 4120 nM | GI50 (U251 CNS): 314 nM | TGI (U251 CNS): 1070 nM | GI50 (LOX IMVI melanoma): 314 nM | GI50 (ACHN renal): 1720 nM | TGI (ACHN renal): 3.53 µM | GI50 (COLO 205 colon): 1810 nM | TGI (COLO 205 colon): 3470 nM | GI50 (M14 melanoma): 1260 nM | TGI (M14 melanoma): 2650 nM | GI50 (CCRF-CEM leukemia): 1650 nM | TGI (CCRF-CEM leukemia): 7.03 µM | GI50 (HL-60(TB) leukemia): 2290 nM | TGI (HL-60(TB) leukemia): 5.93 µM | GI50 (MDA-MB-435): 197 nM | TGI (MDA-MB-435): 372 nM | GI50 (IGROV1 ovarian): 1130 nM | TGI (IGROV1 ovarian): 2540 nM | GI50 (A549 NSCLC): 1490 nM | TGI (A549 NSCLC): 3.21 µM | GI50 (SK-MEL-2 melanoma): 1520 nM | TGI (SK-MEL-2 melanoma): 3020 nM | GI50 (UACC-257 melanoma): 203 nM | TGI (UACC-257 melanoma): 476 nM | GI50 (HS 578T breast): 2500 nM | TGI (HS 578T breast): 9.41 µM | GI50 (OVCAR-4 ovarian): 190 nM | TGI (OVCAR-4 ovarian): 337 nM | GI50 (NCI-H23 lung): 1570 nM | TGI (NCI-H23 lung): 4.25 µM | GI50 (HOP-62 NSCLC): 1130 nM | TGI (HOP-62 NSCLC): 2640 nM | GI50 (DU-145 prostate): 1470 nM | TGI (DU-145 prostate): 2.78 µM | GI50 (MOLT-4 leukemia): 2190 nM | TGI (MOLT-4 leukemia): 7.09 µM | GI50 (RXF 393 renal): 1780 nM | TGI (RXF 393 renal): 3200 nM | GI50 (NCI-H460 lung): 1910 nM | TGI (NCI-H460 lung): 3.97 µM | GI50 (SF-539 CNS): 1710 nM | TGI (SF-539 CNS): 3.23 µM | GI50 (SK-MEL-5 melanoma): 1320 nM | TGI (SK-MEL-5 melanoma): 2630 nM

COC1=CC(c2ccc[nH]2)=N/C1=C\c1[nH]c(C)c(C)c1CCC(=O)OCc1ccccc1
GI50 (UO-31 renal): 209 nM | TGI (UO-31 renal): 459 nM | GI50 (SK-OV-3 ovarian): 1790 nM | TGI (SK-OV-3 ovarian): 5.16 µM | GI50 (HCT-15 colon): 305 nM | TGI (HCT-15 colon): 1180 nM | GI50 (MCF7 breast): 293 nM | TGI (MCF7 breast): 2.19 µM | GI50 (NCI-H226 lung): 377 nM | TGI (NCI-H226 lung): 2460 nM | GI50 (SNB-19 CNS): 676 nM | TGI (SNB-19 CNS): 14 µM | GI50 (OVCAR-8 ovarian): 366 nM | TGI (OVCAR-8 ovarian): 1440 nM | GI50 (KM12 colon): 242 nM | TGI (KM12 colon): 1800 nM | GI50 (SNB-75 CNS): 226 nM | TGI (SNB-75 CNS): 728 nM | GI50 (HOP-92 NSCLC): 217 nM | TGI (HOP-92 NSCLC): 732 nM | GI50 (NCI/ADR-RES ovarian): 382 nM | TGI (NCI/ADR-RES ovarian): 2010 nM | GI50 (HT29 colon): 191 nM | TGI (HT29 colon): 1.36 µM | GI50 (HCT-116 colon): 65 nM | TGI (HCT-116 colon): 1110 nM | GI50 (SF-268 CNS): 369 nM | TGI (SF-268 CNS): 2920 nM | GI50 (OVCAR-5 ovarian): 709 nM | TGI (OVCAR-5 ovarian): 7.07 µM | GI50 (OVCAR-3 ovarian): 304 nM | TGI (OVCAR-3 ovarian): 1350 nM | GI50 (SR leukemia): 175 nM | TGI (SR leukemia): 0.618 µM | GI50 (SF-295 CNS): 224 nM | TGI (SF-295 CNS): 894 nM | GI50 (A498 renal): 563 nM | TGI (A498 renal): 1990 nM | GI50 (EKVX NSCLC): 281 nM | TGI (EKVX NSCLC): 1900 nM | GI50 (CAKI-1 renal): 300 nM | TGI (CAKI-1 renal): 2080 nM | GI50 (PC-3 prostate): 277 nM | TGI (PC-3 prostate): 5.87 µM | GI50 (TK-10 renal): 390 nM | TGI (TK-10 renal): 3090 nM | GI50 (BT-549 breast): 378 nM | TGI (BT-549 breast): 2.9 µM | GI50 (SW-620 colon): 322 nM | TGI (SW-620 colon): 1620 nM | GI50 (T-47D breast): 227 nM | TGI (T-47D breast): 876 nM | GI50 (U251 CNS): 322 nM | TGI (U251 CNS): 1520 nM | GI50 (LOX IMVI melanoma): 217 nM | TGI (LOX IMVI melanoma): 705 nM | GI50 (COLO 205 colon): 257 nM | TGI (COLO 205 colon): 1150 nM | GI50 (M14 melanoma): 285 nM | TGI (M14 melanoma): 1000 nM | GI50 (CCRF-CEM leukemia): 142 nM | TGI (CCRF-CEM leukemia): 2.59 µM | GI50 (HL-60(TB) leukemia): 799 nM | TGI (HL-60(TB) leukemia): 3.46 µM | GI50 (MDA-MB-435): 440 nM | TGI (MDA-MB-435): 1640 nM | GI50 (A549 NSCLC): 602 nM | TGI (A549 NSCLC): 11.1 µM | GI50 (SK-MEL-2 melanoma): 572 nM | TGI (SK-MEL-2 melanoma): 2100 nM | GI50 (UACC-257 melanoma): 1270 nM | TGI (UACC-257 melanoma): 2970 nM | GI50 (HS 578T breast): 289 nM | TGI (HS 578T breast): 1.68 µM | GI50 (OVCAR-4 ovarian): 246 nM | TGI (OVCAR-4 ovarian): 4430 nM | GI50 (NCI-H522 lung): 256 nM | TGI (NCI-H522 lung): 1620 nM | GI50 (NCI-H23 lung): 382 nM | TGI (NCI-H23 lung): 2.55 µM | GI50 (HOP-62 NSCLC): 355 nM | TGI (HOP-62 NSCLC): 1840 nM | GI50 (DU-145 prostate): 446 nM | TGI (DU-145 prostate): 6.82 µM | GI50 (MOLT-4 leukemia): 240 nM | TGI (MOLT-4 leukemia): 1.44 µM | GI50 (RXF 393 renal): 496 nM | TGI (RXF 393 renal): 1830 nM | GI50 (NCI-H460 lung): 623 nM | TGI (NCI-H460 lung): 10.8 µM
